According to patent US5830855A, “Lipodepsipeptides as antifungal and fungicidal agents” (priority 1996, dated 1998):
Bridge positions count the residues as written; N and C are the ends. Square brackets hold non-standard residues; d marks the D form. Peptide text beside a SMILES is read from it. * marks the point of attachment. Asp(3S-OH) = N[C@H](C(=O)O)[C@H](O)C(=O)O; Thr(4-Cl) = N[C@H](C(=O)O)[C@H](O)CCl; X1 = CCCCCCCCC[C@@H](O)CC(=O)*; dDab = NCC[C@@H](N)C(=O)O; Dab = NCC[C@H](N)C(=O)O; Dhb = C/C=C(\N)C(=O)O

How the values were obtained:
Assay type in all cases: cell-based, human
[1] = test system: lymphocytes (peripheral blood mononuclear cells); assay: Lymphocyte proliferation in the absence of mitogens ([3H]-thymidine incorporation); conditions: SR-E at concentrations of 5.72 μM and lower; FIG. 3
Method: (§1) Lipodepsipeptide for Immunosuppression Experiments: SR-E was purified as previously described in Bidwai, A. P., Bachmann, R. C. and Takemoto, J. Y., "Mechanism of action of Pseudomonas syringae phytotoxin syringomycin". Plant Physiol. 83:39-43 (1987). A stock solution (10 mg per ml) was prepared in RPMI1640 culture media, aliquoted and stored frozen at -20°.
(§2) Mitogen-induced lymphocyte proliferation: Peripheral blood mononuclear cells (MNC) (containing lymphocytes and monocytes) were separated by Ficoll-Hypaque density-gradient centrifugation using techniques well known in the art. Mitogen-induced lymphocyte proliferation was determined as previously described in Singh, V. K., "Stimulatory effect of corticotropin-releasing neurohormone on human lymphocyte proliferation and interleukin-2 receptor expression". J.Neuroimmunol.23.257-262 (1989). Briefly, MNC were cultured in triplicate in 96-well microtiter plates (Corning, Inc.). […]
(§3) [^3 H]-thymadine Incorporation: Cells were pulse-labeled for 4 hours with 0.5 μCi/well of [^3 H]methyl-thymidine (spec. act.=25 Ci/mmol from Amersham Intl.). […] To each vial, 2 ml of CytoScint fluid (ICN Biomedicals) was dispensed and the radioactivity determined using a liquid scintillation counter (Tri-Carb, Packard). The rate of [^3 H]-thymidine incorporation by MNC was calculated as counts per minute per 10 ^5 cells.

[2] = test system: pokeweed mitogen (PWM)-induced lymphocyte proliferation; assay: PWM-induced lymphocyte proliferation ([3H]-thymidine incorporation)
Method: as §1
(§4) Lymphocyte stimulation: Lymphocyte stimulation was performed with three different mitogens: phytohemagglutinin (PHA), pokeweed mitogen (PWM), and monoclonal antibody to CD3 (anti-CD3). […]
as §2, with “expression".” for “expression". J.Neuroimmunol.23.257-262 (1989). Briefly, MNC were cultured in triplicate in 96-well microtiter plates (Corning, Inc.).”
as §3, with “The rate of [^3 H]-thymidine incorporation by MNC was calculated as counts per minute per 10 ^5 cells.” left out

[3] = test system: phytohemagglutinin (PHA)-induced lymphocyte proliferation; assay: PHA-induced lymphocyte proliferation ([3H]-thymidine incorporation)
Method: as §1, §4
as §2, with “expression".” for “expression". J.Neuroimmunol.23.257-262 (1989). Briefly, MNC were cultured in triplicate in 96-well microtiter plates (Corning, Inc.).”
as §3, with “The rate of [^3 H]-thymidine incorporation by MNC was calculated as counts per minute per 10 ^5 cells.” left out

[4] = test system: monoclonal antibody to CD3 (anti-CD3)-induced lymphocyte proliferation; assay: anti-CD3-induced lymphocyte proliferation ([3H]-thymidine incorporation)
Method: as §1, §4
as §2, with “expression".” for “expression". J.Neuroimmunol.23.257-262 (1989). Briefly, MNC were cultured in triplicate in 96-well microtiter plates (Corning, Inc.).”
as §3, with “The rate of [^3 H]-thymidine incorporation by MNC was calculated as counts per minute per 10 ^5 cells.” left out

Question: Which results are given for `C/C=C1\NC(=O)[C@H](Cc2ccccc2)NC(=O)[C@H](CCCN=C(N)N)NC(=O)[C@@H](CCN)NC(=O)[C@H](CCN)NC(=O)[C@@H](CO)NC(=O)[C@@H](NC(=O)C[C@H](O)CCCCCCCCC)COC(=O)[C@H]([C@H](O)CCl)NC(=O)[C@H]([C@H](O)C(=O)O)NC1=O` [SR-E, Syringomycin-E] (X1-S[dS][Dab][dDab]RF[Dhb][Asp(3S-OH)][Thr(4-Cl)]; ester 1-C)?
Answer: effect on cell proliferation in the absence of mitogens ([3H]-thymidine incorporation) [1]: no effect; inhibition of PWM response ([2]; 1.14 μM): significantly inhibited; suppression of PWM response ([2]; 5.72 μM, p=0.017): 60%; significant inhibition of PHA response ([3]; 1.14 μM): not; suppression of PHA response ([3]; 5.72 μM, p=0.026): 25%; significant inhibition of anti-CD3 response ([4]; 1.14 μM): not; suppression of anti-CD3 response ([4]; 5.72 μM, p=0.02): 30%
